The values below come from the supplement of paper PMC10307832.

What all share (test): relative viability (nuclei count vs DMSO), 5 days (fraction); higher = more cells survive
Compound in the experiment “PAC-1 + Crizotinib”: C=CCc1cccc(/C=N/NC(=O)CN2CCN(Cc3ccccc3)CC2)c1O [PAC-1] + C[C@@H](Oc1cc(-c2cnn(C3CCNCC3)c2)cnc1N)c1c(Cl)ccc(F)c1Cl [Crizotinib] (partner 1 µM)
In a few lines: (§1)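 Each reported value is a median over duplicate plates. It expresses relative viability: treated-well nuclei count divided by vehicle-well nuclei count. Lung cancer cell lines in 1536-well plates were dosed by pin tool a day after seeding, alone with one drug or with a fixed anchor-drug dose plus five library-drug doses (not always all listed) in √10 steps, and nuclei were counted after 5 days.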

Compound in the experiment “PAC-1 + Vorinostat”: C=CCc1cccc(/C=N/NC(=O)CN2CCN(Cc3ccccc3)CC2)c1O [PAC-1] + O=C(CCCCCCC(=O)Nc1ccccc1)NO [Vorinostat] (partner 1 µM)
In a few lines: as §1

Compound in the experiment “Ibrutinib + Tozasertib”: C=CC(=O)N1CCC[C@@H](n2nc(-c3ccc(Oc4ccccc4)cc3)c3c(N)ncnc32)C1 [Ibrutinib] + Cc1cc(Nc2cc(N3CCN(C)CC3)nc(Sc3ccc(NC(=O)C4CC4)cc3)n2)n[nH]1 [Tozasertib] (partner 0.1 µM)
The method, boiled down: as §1

Compound in the experiment “BMX-IN-1 + Linsitinib”: C=CC(=O)Nc1cc(-n2c(=O)ccc3cnc4ccc(-c5ccc(NS(C)(=O)=O)cc5)cc4c32)ccc1C [BMX-IN-1] + C[C@]1(O)C[C@@H](c2nc(-c3ccc4ccc(-c5ccccc5)nc4c3)c3c(N)nccn32)C1 [Linsitinib] (partner 1 µM)
In a few lines: as §1

For SK-MES-1, the relative viability is 1.05 with PAC-1 + Crizotinib (first compound 0.02 µM); 1.01 in the experiment with PAC-1 + Crizotinib (first compound 0.06325 µM); 1.01 with PAC-1 + Crizotinib (first compound 0.2 µM); 1.01 with PAC-1 + Crizotinib (first compound 2 µM); 1.18 with PAC-1 + Vorinostat (first compound 0.02 µM); 1.09 with PAC-1 + Vorinostat (first compound 0.06325 µM). In addition, the relative viability is 1.02 in the experiment with PAC-1 + Vorinostat (first compound 0.2 µM); 1.17 in the experiment with PAC-1 + Vorinostat (first compound 2 µM); 0.997 with Ibrutinib + Tozasertib (first compound 0.005 µM); 0.872 in the experiment with Ibrutinib + Tozasertib (first compound 0.01581 µM); 0.965 with Ibrutinib + Tozasertib (first compound 0.05 µM); 1.03 in the experiment with Ibrutinib + Tozasertib (first compound 0.1581 µM). For the same cell line, the relative viability worked out at 0.669 in the experiment with Ibrutinib + Tozasertib (first compound 0.5 µM); 1.11 with BMX-IN-1 + Linsitinib (first compound 0.02 µM); 1.06 with BMX-IN-1 + Linsitinib (first compound 0.2 µM); 1.15 with BMX-IN-1 + Linsitinib (first compound 0.6325 µM); 1.07 with BMX-IN-1 + Linsitinib (first compound 2 µM).
